This is an account of results in PubChem BioAssay (NCI).

“And” between values parts separate entries of the source, which are not always exact repeats. Equal entries are not always repeated.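 Assay format: 96-well plates, 48-hour exposure. GI50 = concentration required for 50% inhibition of growth. TGI marks complete inhibition of growth.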 Where a SMILES comes first, the peptide text is derived from it. Side-chain parts run from the residue outwards. The star is where a group is joined. Cbz = O=C(OCc1ccccc1)*; Boc = CC(C)(C)OC(=O)* Bounds are passed on as bounds.

Experiment in all cases: growth of human tumour cells (NCI), 48 h
The test system of assay [1] is CAKI-1 renal.
The subject of assay [2] is UACC-62 melanoma.
The subject of assay [3] is SF-295 CNS.
Assay [4] deals with HCT-15 colon.
For assay [5], the system named is SNB-19 CNS.
Assay [6] deals with SNB-75 CNS.
The subject of assay [7] is DU-145 prostate.

As to `COc1ccc(N2C(=O)C3c4[nH]c5ccccc5c4C4c5ccccc5CC4C3C2=O)cc1` (stereo not given), the TGI in assay [1], in assay [2], in assay [3], in assay [4], in assay [5] and in assay [6] was > 100 µM throughout. For the same compound, the TGI in assay [7] was > 100 µM.

For `N#Cc1ccc(C2Oc3ccc(Cl)cc3C=C2[N+](=O)[O-])cc1` (stereo not given), the TGI was determined as 2.96 µM in assay [1]; 3.09 µM in assay [2]; 9.15 µM in assay [3]; 4.12 µM in assay [4]; 6.58 µM in assay [5]; 2.83 µM in assay [6]. In addition, the TGI in assay [7] turned out to be 6.07 µM.

As for `O=C(c1ccccc1)c1c(C(F)(F)F)n([O-])c2cc(F)c(F)cc2[n+]1=O`, the TGI in assay [1] is 1.76 µM; in assay [2] it was 5.08 µM; in assay [3], 5.66 µM; in assay [5], 10.8 µM; in assay [7] it was 8.71 µM.

With `C[C@@]12C[C@@H](c3ccccc3O1)N1Cc3ccccc3CSC1=N2`, the TGI in assay [1], in assay [2], in assay [3], in assay [4], in assay [5] and in assay [6] was > 100 µM throughout. Moreover, in assay [7], the TGI was > 100 µM.

`CC(C)(C)OC(=O)n1c(Cl)c(C=O)c2ccccc21`: the TGI in assay [1] was 35.4 µM; in assay [2], 43.3 µM; in assay [3] it was > 100 µM; in assay [4], 70.4 µM; in assay [5], > 100 µM; in assay [6] it was > 100 µM. In addition, in assay [7], the TGI came out at 39.6 µM.

Take `COc1ccc(-c2nc(-c3cnccn3)n(Cc3ccccc3)n2)cc1`: the TGI in assay [2], in assay [3], in assay [4], in assay [5], in assay [6] and in assay [7] was > 100 µM each time.

As to `COc1cc2[nH]c(=O)c3cc(C)cc4c(Cl)nc(c1OC)c2c43`, the TGI in assay [1] is > 100 µM; in assay [2], 96 µM; in assay [3], > 100 µM; in assay [4], > 100 µM; in assay [5] it was > 100 µM; in assay [6], 85.3 µM. Further, the TGI in assay [7] was > 100 µM.

For `CC(=O)N1C(Nc2cccc3nc(C)ccc23)CCN1c1ccccc1` (stereo not given), the TGI in assay [1], in assay [3], in assay [4], in assay [5], in assay [6] and in assay [7] was > 10 µM each time.

On to `O=C1CC(C(COCc2ccccc2)OCc2ccccc2)CC(=O)N1` (stereo not given), for which the TGI in assay [1], in assay [3], in assay [4], in assay [5] and in assay [7] was > 100 µM each time.

As to `CC(C)(C)OC(=O)NC(CCCCNC(=O)CNC(=O)OCc1ccccc1)C(=O)NC(CCCCNC(=O)CNC(=O)OCc1ccccc1)C(=O)NC(CCCCNC(=O)CNC(=O)OCc1ccccc1)C(=O)NC(CCCCNC(=O)CNC(=O)OCc1ccccc1)C(=O)O` (stereo not given) (Boc-K([Gly-Cbz])K([Gly-Cbz])K([Gly-Cbz])K([Gly-Cbz])-OH; configuration not given here), the TGI in assay [1], in assay [2], in assay [4], in assay [5], in assay [6] and in assay [7] was > 100 µM in each case.

Consider `COc1ccc(C2=C(Cl)c3cc(OC)c(OC)cc3C2)cc1OC`, for which the TGI in assay [2], in assay [3], in assay [4], in assay [5] and in assay [6] was > 100 µM throughout.

Take `Cc1cn([C@@H]2C[C@H](CO)[C@@H]2O)c(=O)[nH]c1=O`: the TGI in assay [1], in assay [3], in assay [4], in assay [6] and in assay [7] was > 100 µM in each case.

In the case of `CCOC1NC(/N=C/c2ccc(OC)cc2)=C(C#N)C1C#N` (stereo not given), the TGI in assay [1], in assay [2], in assay [3], in assay [4], in assay [5] and in assay [7] was > 100 µM each time.

Take `COc1cc(C(O)C(=O)c2cnc3cc([N+](=O)[O-])ccc3n2)ccc1O` (stereo not given): the TGI in assay [1], in assay [2], in assay [3], in assay [4], in assay [5] and in assay [6] was > 100 µM each time.

For the compound `COc1cc2c(c(OC)c1OC)-c1ccc(SC)c(=O)cc1[C@@H](NCc1cccc([N+](=O)[O-])c1)CC2`, the TGI in assay [1] was > 100 µM; in assay [2], 17.8 µM; in assay [3] it was > 100 µM; in assay [5], > 100 µM; in assay [6], > 100 µM.

For the compound `COc1ccc(C2C(C#N)=C(S)N(C3OC(CO)C(O)C(O)C3O)C(C)=C2C(C)=O)cc1` (stereo not given), the TGI in assay [2], in assay [3], in assay [4], in assay [5], in assay [6] and in assay [7] was > 100 µM in each case.

Turning to `COc1ccc([C@H]2c3cc4c(cc3OC(O)(CO)[C@H]2C(=O)O)OCO4)c(OC)c1` (stereo not given in full) (tested in a mixture with another compound), the TGI in assay [2], in assay [3], in assay [4], in assay [5] and in assay [6] was > 100 µM each time.

Turning to `CC(=O)c1ccc2c3c1O[C@H]1c4[nH]c5ccccc5c4C[C@@]4(O)[C@@H](C2)N(CC2CC2)CC[C@]314`, the TGI in assay [1] was 37.4 µM; in assay [2], 30.7 µM; in assay [3] it was 29 µM; in assay [4], 25.3 µM; in assay [5], 20.8 µM; in assay [7] it was 39.5 µM.

With `COc1cc(O)cc(O)c1C(=O)CC(Cl)(Cl)Cl`, the TGI in assay [1], in assay [2], in assay [3], in assay [4], in assay [5] and in assay [7] was > 100 µM each time.

As for `C1=CN2C[n+]3ccc4ccccc4c3N=C2c2ccccc21`, the TGI is 50.2 µM in assay [1]; 4.32 µM in assay [2]; 24 µM in assay [3]; > 100 µM in assay [4]; 33.3 µM in assay [5]; 25.2 µM in assay [7].

`COc1ccc(CCCN2c3ccccc3Sc3ccccc32)cc1`: the TGI in assay [1], in assay [2], in assay [3], in assay [4], in assay [5] and in assay [6] was > 100 µM each time.

As for `O=C(NN1C(=O)C(Cl)C1c1ccccc1Cl)c1ccccc1O` (stereo not given), the TGI in assay [2], in assay [3], in assay [4], in assay [5] and in assay [6] was > 100 µM throughout.

For the compound `O=C(NNS(=O)(=O)c1ccccc1)c1csc(NC(=S)NC2CCCCC2)n1`, the TGI is 61.4 µM in assay [1]; 61.3 µM in assay [2]; > 100 µM in assay [3]; > 100 µM in assay [4]; > 100 µM in assay [6]; 81.5 µM in assay [7].

Regarding `COc1cc(-c2nc3cc(Cl)c(Cl)cc3[nH]2)ccc1OCC(=O)N=Nc1c(O)[nH]c2ccc(Cl)cc12`, the GI50 was 1.2 µM in assay [2], > 100 µM in assay [4], 0.447 µM in assay [5] and 1 µM in assay [6]. Also, the TGI is 2.54 µM in assay [2], > 100 µM in assay [4], 3.33 µM in assay [5] and 3.93 µM in assay [6].

Regarding `O=C1c2cc3c(cc2CC1Cc1ccc2c(c1)CCC2)CCC3` (stereo not given), the TGI in assay [2] was > 100 µM; in assay [3], > 100 µM; in assay [4] it was > 100 µM; in assay [5], > 100 µM; in assay [6], 75.5 µM; in assay [7] it was > 100 µM.

Turning to `CC1(C)CN=CC(C)(OCc2ccccc2)C(=O)NC(C)(C)CN=CC(C)(OCc2ccccc2)C(=O)N1` (stereo not given), the TGI in assay [2], in assay [3], in assay [4], in assay [5], in assay [6] and in assay [7] was > 10 µM in each case.

`C[N+](C)(C)CC(=O)N/N=C(/Cc1nc2ccc([N+](=O)[O-])cc2[nH]c1=O)C(=O)Nc1cc(C(F)(F)F)ccc1Cl`: the TGI in assay [1], in assay [2], in assay [3] and in assay [5] was > 100 µM in each case.

Consider `COc1ccc(C2=NNC(c3cc4cc(Br)ccc4nc3Cl)C2)cc1` (stereo not given), for which the TGI in assay [1], in assay [2], in assay [6] and in assay [7] was > 25 µM in each case.

In the case of `O=C(Nc1ccc(Sc2ccc(N=Nc3c(O)c(S(=O)(=O)O)cc4cc(S(=O)(=O)O)ccc34)cc2)cc1)c1ccc(N=Nc2c(O)c(S(=O)(=O)O)cc3cc(S(=O)(=O)O)ccc23)cc1`, the TGI was > 100 µM in assay [1]; 62 µM in assay [2]; > 100 µM in assay [3]; 28 µM in assay [4]; > 100 µM in assay [5]; > 100 µM in assay [6].

As to `CS(=O)(=O)OCC1CCCCCCCCCCC12SCCCS2` (stereo not given), the TGI in assay [1], in assay [2], in assay [3], in assay [4], in assay [5] and in assay [7] was > 100 µM in each case.

With `COc1cc2c(c(OC)c1OC)-c1ccc(SC)c(=O)cc1[C@@H](NC(=O)c1ccc([N+](=O)[O-])cc1)CC2`, the TGI in assay [2] is 25 µM and > 100 µM; in assay [3] it was 0.00721 µM; in assay [5], 23.2 µM. In addition, the GI50 in assay [6] was < 0.0025 µM.

As to `CCN(CC)c1ccc2cc(C(N)=O)c(=Nc3ccc(F)cc3)oc2c1`, the TGI in assay [1] was > 100 µM; in assay [2], > 100 µM; in assay [3], > 100 µM; in assay [4], > 100 µM; in assay [5], > 100 µM; in assay [6], 47 µM.

Consider `O=C(c1ccccc1O)c1cc(-c2ncc3c(=O)c4ccccc4oc3n2)c(-c2ccccc2O)[nH]c1=O`, for which the TGI is > 33.3 µM in assay [1]; 51.4 µM in assay [2]; 22.7 µM in assay [3]; 71 µM in assay [4]; > 87.5 µM in assay [5]; > 100 µM in assay [6].

`O=C(N[C@H]1CCC[C@H]1C(=O)Nc1ccc(C(F)(F)F)cc1)OCc1ccccc1`: the TGI in assay [1], in assay [2], in assay [3], in assay [4], in assay [5] and in assay [7] was > 100 µM each time.

For the compound `COc1cc([C@@H]2c3cc4c(cc3[C@@H](c3c(O)cc(O)c5c3O[C@H](c3ccc(O)c(O)c3)[C@H](OC(=O)c3cc(O)c(O)c(O)c3)C5)[C@H]3COC(=O)[C@H]23)OCO4)cc(OC)c1O`, the TGI in assay [1], in assay [2], in assay [3], in assay [4], in assay [5] and in assay [7] was > 100 µM each time.

For `COc1cc(S(=O)(=O)Nc2ccc(-c3csc(N4C(=O)C(C)SC4c4ccccc4)n3)cc2)ccc1Cl` (stereo not given), the TGI in assay [1] is > 100 µM; in assay [2] it was 52.8 µM; in assay [4], > 100 µM; in assay [5], > 100 µM; in assay [6] it was 32.7 µM; in assay [7], > 100 µM.

Consider `O=Cc1c(Br)[nH]c2ccccc12`, for which the TGI in assay [2], in assay [3], in assay [4] and in assay [6] was > 100 µM each time.

In the case of `Cn1cnc(SC2=C3C(=O)C=C4S[C@H]5C[C@]42c2c(c(O)c4c6c2=[N+]3CCC=6C=N4)N5)c1CC(N)C(=O)O` (stereo not given in full), the TGI in assay [1] is 79.1 µM; in assay [2], 29.2 µM; in assay [3], 29.4 µM; in assay [4] it was > 100 µM; in assay [5], 32 µM; in assay [6], 34.1 µM.
